Source: PubChem BioAssay (NCI)
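Grown in 96-well plates, cells were treated for 48 hours with each compound at five concentrations. Insufficient inhibition: endpoint recorded as highest concentration tested. GI50 = concentration required for 50% inhibition of growth. TGI marks complete inhibition of growth.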

How the values were obtained:
Assay in all cases: NCI tumour cell line growth inhibition, 48 h
U251 CNS = test system: U251 CNS
UACC-62 melanoma = test system: UACC-62 melanoma
SNB-78 CNS = test system: SNB-78 CNS
MOLT-4 leukemia = test system: MOLT-4 leukemia
DLD-1 colon = test system: DLD-1 colon
SK-OV-3 ovarian = test system: SK-OV-3 ovarian
HCC-2998 colon = test system: HCC-2998 colon
T-47D breast = test system: T-47D breast
NCI/ADR-RES ovarian = test system: NCI/ADR-RES ovarian

SMILES	TGI (U251 CNS) [µM]	TGI (UACC-62 melanoma) [µM]	TGI (SNB-78 CNS) [µM]	TGI (MOLT-4 leukemia) [µM]	TGI (DLD-1 colon) [µM]	TGI (SK-OV-3 ovarian) [µM]	TGI (HCC-2998 colon) [µM]	TGI (T-47D breast) [µM]	TGI (NCI/ADR-RES ovarian) [µM]	GI50 (U251 CNS) [µM]	GI50 (UACC-62 melanoma) [µM]	GI50 (SNB-78 CNS) [µM]	GI50 (DLD-1 colon) [µM]	GI50 (HCC-2998 colon) [µM]
CC(C)(C)C1CCP(=O)(c2ccccc2)CC1 (stereo unspecified)	> 100	> 100	> 100	> 100	> 100	> 100	> 100	–	–	–	–	–	–	–
COc1cc(-c2ccccc2)c(OC)cc1CCl	> 100	> 100	> 100	> 100	> 100	> 100	> 100	–	–	–	–	–	–	–
CCOC(=O)C/C(N)=C(\C#N)C(=O)OCC	> 100	> 100	> 100	> 100	> 100	> 100	–	–	–	–	–	–	–	–
NC(=O)c1ccccc1NC(=O)C(=O)Nc1n[nH]c(N)n1	> 100	> 100	> 100	> 100	> 100	> 100	> 100	–	–	–	–	–	–	–
O=C(O)/C(=C/c1ccccc1[N+](=O)[O-])c1cccs1	> 100	> 100	> 100	> 100	> 100	> 100	> 100	–	–	–	–	–	–	–
O=C(Cc1nc2ccc(C(=O)c3ccccc3)cc2[nH]c1=O)C(=O)Nc1ccc(C(F)(F)F)cc1[N+](=O)[O-]	> 100	> 100	> 100	> 100	> 100	> 100	> 100	–	–	–	–	–	–	–
Cc1nn2c(=O)n(-c3cccc(-n4nnc5c(-c6ccccc6)c(C)nn5c4=O)c3C)nnc2c1-c1ccccc1	> 100	> 100	> 100	50	91.6	> 100	55.8	–	–	–	–	–	–	–
CC[C@@]1(OC(=O)C(N)CCC(=O)O)C(=O)OCc2c1cc1n(c2=O)Cc2cc3ccccc3nc2-1 (stereo partly specified)	1.98	0.16	> 100	0.0992	> 100	3.33	3.02	> 100	0.297	–	–	–	–	–
CC(=O)n1cc(CC(C)O)c(=O)[nH]c1=O (stereo unspecified)	> 100	> 100	> 100	> 100	> 100	> 100	–	–	–	–	–	–	–	–
COc1ccccc1NC(=O)CC(=O)n1nc(-c2ccccc2)c(N=Nc2ccccc2[N+](=O)[O-])c1-c1ccccc1	> 100	> 100	> 100	> 100	> 100	> 100	> 100	–	–	–	–	–	–	–
COC(=O)CSc1n[nH]c(-c2ccccc2)n1	> 100	> 100	> 100	43.2	> 100	> 100	–	–	–	–	–	–	–	–
CC(N)CN.CC(N)CN.[Cl-].[O]=[Os+2]=[O] (stereo unspecified)	> 100	> 100	> 100	–	> 100	–	> 100	–	–	> 100	> 100	> 100	> 100	> 100
